Assay results published in PubChem BioAssay (NCI).
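The compound was tested at five concentrations on cells cultured in 96-well plates, with a 48-hour exposure period. Abbreviation: GI50, concentration required for 50% inhibition of growth. TGI marks complete inhibition of growth.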 Where a SMILES comes first, the peptide text is derived from it. [ ]: non-standard residue; d: D form. ξ: configuration not given here. Pentanoyl(2-O,4-OH,5-Cl) = O=C(O)C(O)CC(O)CCl; Ile(3ξ) = CCC(C)[C@H](N)C(=O)O; NMeV = CN[C@H](C(=O)O)C(C)C; NMeA = CN[C@@H](C)C(=O)O; βAla = NCCC(=O)O

Assays:
Test in all cases: inhibition of tumour cell growth, NCI panel, 48 h
[1] = test system: KM12 colon
[2] = test system: NCI-H460 lung
[3] = test system: OVCAR-8 ovarian
[4] = test system: SF-539 CNS
[5] = test system: SK-MEL-5 melanoma
[6] = test system: U251 CNS
[7] = test system: HCT-15 colon
[8] = test system: LOX IMVI melanoma
[9] = test system: UACC-62 melanoma
[10] = test system: RPMI-8226 leukemia

SMILES: CCOc1ccc2c(c1)[n+]([O-])c(C(N)=O)c(N)[n+]2[O-]
- TGI [1]: > 100 µM
- TGI [2]: > 100 µM
- TGI [3]: > 100 µM
- TGI [4]: > 100 µM
- TGI [5]: > 100 µM
- TGI [6]: > 100 µM

SMILES: Oc1ccc(CCNc2nc3ccccc3c3[nH]c4ccccc4c23)cc1O
- GI50 [7]: 1.9 µM
- TGI [7]: 3.95 µM
- GI50 [1]: 1.59 µM
- TGI [1]: 4.19 µM
- GI50 [8]: 1.77 µM
- TGI [8]: 3.28 µM
- GI50 [2]: 2.17 µM
- TGI [2]: 5.54 µM
- GI50 [3]: 1.9 µM
- TGI [3]: 3.85 µM
- GI50 [4]: 2.02 µM
- TGI [4]: 3.6 µM
- GI50 [5]: 3.2 µM
- TGI [5]: 11.5 µM
- GI50 [6]: 2.53 µM
- TGI [6]: 6.51 µM
- GI50 [9]: 3.86 µM
- TGI [9]: 13.4 µM

SMILES: CCC(=O)N1C(=S)SC[C@H]1C(=O)OC
- TGI [1]: > 100 µM
- TGI [8]: > 100 µM
- TGI [3]: > 100 µM
- TGI [4]: > 100 µM
- TGI [5]: > 100 µM
- TGI [6]: > 100 µM
- TGI [9]: > 100 µM

SMILES: Cc1cc[c]([Sb]2[O]C(CO)C(C(O)C(O)C(=O)O)[O]2)cc1 (configuration not stated)
- GI50 [7]: > 100 µM
- TGI [7]: > 100 µM
- GI50 [1]: 46.7 µM
- TGI [1]: > 100 µM
- GI50 [8]: 39.9 µM
- TGI [8]: > 100 µM
- GI50 [3]: > 100 µM
- TGI [3]: > 100 µM
- GI50 [5]: > 100 µM
- TGI [5]: > 100 µM
- GI50 [6]: 29.1 µM
- TGI [6]: > 100 µM
- GI50 [9]: > 100 µM
- TGI [9]: > 100 µM

SMILES: O=NN(CC1(O)OCC(O)C(O)C1O)C(Cc1c[nH]c2ccccc12)C(=O)O (configuration not stated)
- TGI [1]: > 100 µM
- TGI [8]: > 100 µM
- TGI [2]: > 100 µM
- TGI [3]: > 100 µM
- TGI [10]: > 100 µM
- TGI [4]: > 100 µM
- TGI [5]: > 100 µM
- TGI [6]: > 100 µM
- TGI [9]: > 100 µM

SMILES: O=c1oc2ccccc2cc1P(=O)(O)O
- TGI [7]: > 100 µM
- TGI [8]: > 100 µM
- TGI [2]: > 100 µM
- TGI [3]: > 100 µM
- TGI [10]: > 100 µM
- TGI [4]: > 100 µM
- TGI [5]: > 100 µM
- TGI [6]: > 100 µM
- TGI [9]: > 100 µM

SMILES: CCO/C(O)=c1/s/c(=C2/SC(=S)N(c3ccc(C)cc3)C2=O)n(-c2ccccc2)c1=N
- TGI [7]: > 100 µM
- TGI [1]: > 100 µM
- TGI [2]: > 100 µM
- TGI [3]: > 100 µM
- TGI [10]: > 100 µM
- TGI [4]: 39 µM
- TGI [5]: > 100 µM
- TGI [6]: > 100 µM
- TGI [9]: > 100 µM

SMILES: COc1ccc(C(O)C(c2ccc(OCc3ccccc3)cc2)c2ccc(OCc3ccccc3)cc2)cc1 (configuration not stated)
- TGI [7]: > 100 µM
- TGI [1]: > 100 µM
- TGI [2]: > 100 µM
- TGI [3]: > 100 µM
- TGI [10]: > 100 µM
- TGI [4]: > 100 µM
- TGI [5]: > 100 µM
- TGI [6]: > 100 µM
- TGI [9]: > 100 µM

SMILES: O=C1/C(=C/c2cc(O)c(O)c(O)c2)Oc2cc(O)cc(OC3OC(CO)C(O)C(O)C3O)c21 (configuration not stated)
- TGI [7]: 57.5 µM
- TGI [1]: > 100 µM
- TGI [2]: 34 µM
- TGI [3]: 35.7 µM
- TGI [10]: 67.9 µM
- TGI [4]: > 100 µM
- TGI [5]: 31 µM
- TGI [9]: 38.8 µM

SMILES: C/C(=C1\C(=O)Nc2ccccc21)c1cccc(/C(C)=C2/C(=O)Nc3ccccc32)n1
- GI50 [7]: 4.21 µM
- TGI [7]: 34.9 µM
- GI50 [8]: 8.4 µM
- TGI [8]: 31 µM
- GI50 [2]: 5.08 µM
- TGI [2]: > 100 µM
- GI50 [3]: 6.39 µM
- TGI [3]: 76.8 µM
- GI50 [10]: 4.87 µM
- TGI [10]: > 100 µM
- GI50 [4]: 2.49 µM
- TGI [4]: 7.99 µM
- GI50 [5]: 5.67 µM
- TGI [5]: 25.4 µM
- GI50 [6]: 7.6 µM
- TGI [6]: > 100 µM
- GI50 [9]: 4.56 µM
- TGI [9]: 23.2 µM

SMILES: CCN(CC)CCN1C(=O)C2C3C(C)=CC(OC(C)=O)(CC3C)C2C1=O (configuration not stated)
- GI50 [7]: > 100 µM
- TGI [7]: > 100 µM
- GI50 [1]: > 100 µM
- TGI [1]: > 100 µM
- GI50 [8]: > 100 µM
- TGI [8]: > 100 µM
- GI50 [3]: > 100 µM
- TGI [3]: > 100 µM
- GI50 [4]: > 100 µM
- TGI [4]: > 100 µM
- GI50 [5]: > 100 µM
- TGI [5]: > 100 µM
- GI50 [6]: > 100 µM
- TGI [6]: > 100 µM
- GI50 [9]: > 100 µM
- TGI [9]: > 100 µM

SMILES: O=c1c2ccccc2c(=O)n2n1-c1cccc(c1)CSSCc1cccc-2c1
- GI50 [7]: > 100 µM
- TGI [7]: > 100 µM
- GI50 [1]: > 100 µM
- TGI [1]: > 100 µM
- TGI [8]: > 100 µM
- GI50 [3]: > 100 µM
- TGI [3]: > 100 µM
- GI50 [10]: > 100 µM
- TGI [10]: > 100 µM
- GI50 [4]: > 100 µM
- TGI [4]: > 100 µM
- GI50 [5]: > 100 µM
- TGI [5]: > 100 µM
- TGI [6]: > 100 µM
- GI50 [9]: > 100 µM
- TGI [9]: > 100 µM

SMILES: CCN(CC)CC(C(=O)Nc1c(C)cccc1C)/C(C)=N\NC(=S)NN (configuration not stated)
- TGI [1]: > 100 µM
- TGI [8]: > 100 µM
- TGI [2]: > 100 µM
- TGI [3]: > 100 µM
- TGI [10]: > 100 µM
- TGI [4]: > 100 µM
- TGI [5]: > 100 µM
- TGI [6]: > 100 µM
- TGI [9]: > 100 µM

SMILES: O=C1CN=C(c2ccccc2)c2ccncc2N1
- TGI [1]: 37 µM
- TGI [8]: > 100 µM
- TGI [3]: > 100 µM
- TGI [4]: > 100 µM
- TGI [5]: > 100 µM
- TGI [6]: > 100 µM
- TGI [9]: > 100 µM

SMILES: O=c1[nH]c(=O)n(Cc2ccc(C34CC5CC(CC(C5)C3)C4)c(O)c2)cc1F
- GI50 [7]: 10.2 µM
- TGI [7]: 22.3 µM
- GI50 [1]: 12.1 µM
- TGI [1]: 28.5 µM
- GI50 [8]: 13.4 µM
- TGI [8]: 27.2 µM
- GI50 [2]: 16.5 µM
- TGI [2]: 43 µM
- GI50 [10]: 5.74 µM
- TGI [10]: 23.8 µM
- GI50 [4]: 14.7 µM
- TGI [4]: 30.1 µM
- GI50 [5]: 11.2 µM
- TGI [5]: 23.3 µM
- GI50 [6]: 12.3 µM
- TGI [6]: 24.9 µM
- GI50 [9]: 6.93 µM
- TGI [9]: 20.3 µM

SMILES: CCC(C)[C@@H]1NC(=O)[C@@H]2CCCN2C(=O)C(CC(O)CCl)OC(=O)CCNC(=O)[C@H](C)N(C)C(=O)[C@H](C(C)C)N(C)C1=O (some centres not stated) (cyclo([Ile(3ξ)][NMeV][NMeA][βAla][Pentanoyl(2-O,4-OH,5-Cl)]P))
- TGI [7]: > 100 µM
- TGI [1]: > 100 µM
- TGI [2]: > 100 µM
- TGI [3]: > 100 µM
- TGI [10]: > 100 µM
- TGI [4]: > 100 µM
- TGI [5]: 2.29 µM
- TGI [6]: > 100 µM
- TGI [9]: 7.71 µM

SMILES: CCOP(=O)(OCC)C(C(=O)OC)C(=O)C(=O)Nc1cccc([N+](=O)[O-])c1 (configuration not stated)
- TGI [7]: > 100 µM
- TGI [1]: > 100 µM
- TGI [8]: > 100 µM
- TGI [2]: > 100 µM
- TGI [3]: > 100 µM
- TGI [4]: > 100 µM
- TGI [5]: > 100 µM
- TGI [6]: > 100 µM
- TGI [9]: > 100 µM

SMILES: CC(C)N1CCOC(c2ccc(O)c(O)c2)C1 (configuration not stated)
- TGI [7]: > 100 µM
- TGI [1]: > 100 µM
- TGI [8]: > 100 µM
- TGI [2]: > 100 µM
- TGI [3]: > 100 µM
- TGI [10]: > 100 µM
- TGI [5]: > 100 µM
- TGI [9]: > 100 µM

SMILES: OC(c1ccccc1)c1c(-c2ccccc2)[nH]c(-c2ccccc2)c1C(O)c1ccccc1 (configuration not stated)
- TGI [7]: 40.1 µM
- TGI [1]: 6.09 µM
- TGI [8]: 7.37 µM
- TGI [2]: 14.2 µM
- TGI [10]: 5.02 µM
- TGI [4]: 6.94 µM
- TGI [5]: 5.27 µM
- TGI [6]: 18.5 µM
- TGI [9]: 7.97 µM

SMILES: CC1COS(=O)N1c1ccccc1 (configuration not stated)
- TGI [7]: > 100 µM
- TGI [1]: > 100 µM
- TGI [8]: > 100 µM
- TGI [2]: > 100 µM
- TGI [3]: > 100 µM
- TGI [10]: > 100 µM
- TGI [5]: > 100 µM
- TGI [6]: > 100 µM
- TGI [9]: > 100 µM
